# Reference: patent US10975068B2, “6-aminopyridin-3-yl thiazoles as modulators of RORγT” (Janssen Pharmaceutica NV, priority 2016, dated 2021)
# Like-named read-outs stand apart in the source and are kept apart here.
# Experiments:
# [1] = target: human RORγt ligand binding domain (RORγt LBD) (Homo sapiens (Human), UniProt P51449); assay: RORγt ThermoFluor® assay (thermal shift binding); details: read-out: ThermoFluor® Assay, Kd
# In short: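 Binding was inferred from thermal stabilisation (ΔTm) of the E. coli-expressed RORγt LBD (0.065 mg/mL), monitored by 1,8-ANS (60 μM) emission at 500 nm during a 1 °C/min ramp. Buffer was Hepes 100 mM pH 7.0 with NaCl, GSH and Tween-20.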
# full-length human RORγt = full-length human RORγt (Homo sapiens (Human), UniProt P51449); assay: RORγt (full-length human) reporter assay, Conditions B or C; type: cell-based; details: Conditions B or C; for RORγt (FL) Reporter Assay B or C, % inhibition (value marked *): marked *: footnote not given
# In short: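 Readout is dual luciferase: firefly (GAL4-driven) normalized to DMSO-only and saturating-reference controls, then to CMV-Renilla. Full-length human RORγt fused to GAL4-DBD was transiently expressed in HEK293T; compound exposure ran overnight (16-20 h) starting 4-6 h after transfection, final FBS 1.3%, DMSO 0.1%.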
# [2] = read-out: RORγt (FL) Reporter Assay B or C, IC50
# [3] = RORγt (FL) Reporter Assay B or C, IC50 (μM)
# Chain of human RORγt ligand binding domain (RORγt LBD) (P51449 other isoform, or with tags, fused parts or gaps): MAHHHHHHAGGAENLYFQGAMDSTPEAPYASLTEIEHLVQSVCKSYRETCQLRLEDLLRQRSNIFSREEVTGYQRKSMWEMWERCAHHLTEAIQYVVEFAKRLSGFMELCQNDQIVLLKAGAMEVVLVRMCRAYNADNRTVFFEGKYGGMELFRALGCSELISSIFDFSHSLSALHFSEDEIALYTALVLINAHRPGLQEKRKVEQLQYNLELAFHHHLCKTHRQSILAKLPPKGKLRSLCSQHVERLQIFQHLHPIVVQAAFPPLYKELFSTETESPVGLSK
# Chain of full-length human RORγt (P51449 other isoform, or with tags, fused parts or gaps): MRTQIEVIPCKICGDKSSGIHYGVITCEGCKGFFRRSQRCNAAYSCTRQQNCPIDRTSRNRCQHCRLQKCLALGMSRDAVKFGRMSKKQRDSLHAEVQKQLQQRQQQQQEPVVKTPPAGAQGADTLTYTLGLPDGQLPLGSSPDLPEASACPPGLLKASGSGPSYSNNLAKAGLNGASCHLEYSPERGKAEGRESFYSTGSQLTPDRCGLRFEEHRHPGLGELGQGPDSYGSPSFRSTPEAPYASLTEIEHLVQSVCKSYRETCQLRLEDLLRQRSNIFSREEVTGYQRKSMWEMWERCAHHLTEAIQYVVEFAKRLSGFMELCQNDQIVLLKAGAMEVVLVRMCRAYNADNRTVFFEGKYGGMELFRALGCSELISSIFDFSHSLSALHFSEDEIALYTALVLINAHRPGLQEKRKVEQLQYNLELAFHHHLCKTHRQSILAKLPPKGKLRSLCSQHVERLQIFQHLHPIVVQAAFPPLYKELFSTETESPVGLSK
Kd [1] [µM],"RORγt (FL) Reporter Assay B or C, % inhibition (value marked *) (full-length human RORγt)",IC50 (full-length human RORγt; [2]) [µM],"RORγt (FL) Reporter Assay B or C, % inhibition (value marked *****) (full-length human RORγt; marked *****: footnote not shown)",Compound,IC50 (full-length human RORγt; [3]) [µM]
0.012,107* %,0.1,–,"C[C@H](Nc1cc(C(F)F)c(-c2sc(C(=O)N[C@@H]3COC[C@H]3O)nc2C(=O)N2CCC[C@@H]2C)cn1)C(F)(F)F [Example 215, 5-(4-(Difluoromethyl)-6-(((1S)-2,2,2-trifluoro-1-methyl-ethyl)amino)-3-pyridyl)-N-((3R,4S)-4-hydroxytetrahydrofuran-3-yl)-4-((2S)-2-methylpyrrolidine-1-carbonyl)thiazole-2-carboxamide]",–
0.0061,–,0.013,111***** %,"CC[C@H](Nc1cc(C(F)F)c(-c2sc(C(=O)N[C@@H]3COC[C@H]3O)nc2C(=O)N2CCC[C@@H]2C)cn1)C(F)(F)F [Example 220, 5-(4-(Difluoromethyl)-6-(((1S)-1-(trifluoromethyl)propyl)amino)-3-pyridyl)-N-((3R,4S)-4-hydroxytetrahydrofuran-3-yl)-4-((2S)-2-methylpyrrolidine-1-carbonyl)thiazole-2-carboxamide]",–
0.00097,83* %,0.042,–,"CC[C@H](Nc1cc(C(F)F)c(-c2sc(C(=O)N[C@H]3CCC[C@@H]3O)nc2C(=O)N2CCC[C@@H]2C)cn1)C(F)(F)F [Example 229, 5-(4-(Difluoromethyl)-6-(((1S)-1-(trifluoromethyl)propyl)amino)-3-pyridyl)-N-((1S,2S)-2-hydroxycyclopentyl)-4-((2S)-2-methylpyrrolidine-1-carbonyl)thiazole-2-carboxamide]",–
0.0014,92* %,0.058,–,"CC[C@H](Nc1cc(C(F)F)c(-c2sc(C(=O)N[C@@H]3CCC[C@H]3O)nc2C(=O)N2CCC[C@@H]2C)cn1)C(F)(F)F [Example 231, 5-[4-(Difluoromethyl)-6-[[(1S)-1-(trifluoromethyl)propyl]amino]-3-pyridyl]-N-[(1R,2R)-2-hydroxycyclopentyl]-4-[(2S)-2-methylpyrrolidine-1-carbonyl]thiazole-2-carboxamide]",–
0.0034,122* %,0.069,–,"CC[C@H](Nc1cc(C(F)F)c(-c2sc(C(=O)NC3CCS(=O)(=O)CC3)nc2C(=O)N2CCC[C@@H]2C)cn1)C(F)(F)F [Example 232, 5-(4-(Difluoromethyl)-6-(((S)-1,1,1-trifluorobutan-2-yl)amino)pyridin-3-yl)-N-(1,1-dioxidotetrahydro-2H-thiopyran-4-yl)-4-((S)-2-methylpyrrolidine-1-carbonyl)thiazole-2-carboxamide]",–
0.01,124* %,0.022,–,"CC[C@H](Nc1cc(C(F)F)c(-c2sc(C(=O)N[C@H]3C[C@H](O)C3)nc2C(=O)N2CCC[C@@H]2C)cn1)C(F)(F)F [Example 233, 5-[4-(Difluoromethyl)-6-[[(1S)-1-(trifluoromethyl)propyl]amino]-3-pyridyl]-N-((1r,3S)-3-hydroxycyclobutyl)-4-[(2S)-2-methylpyrrolidine-1-carbonyl]thiazole-2-carboxamide]",–
0.0052,116* %,0.042,–,"CC[C@H](Nc1cc(C(F)F)c(-c2sc(C(=O)N[C@H](C)CO)nc2C(=O)N2CCC[C@@H]2C)cn1)C(F)(F)F [Example 234, 5-[4-(Difluoromethyl)-6-[[(1S)-1-(trifluoromethyl)propyl]amino]-3-pyridyl]-N-[(1R)-2-hydroxy-1-methyl-ethyl]-4-[(2S)-2-methylpyrrolidine-1-carbonyl]thiazole-2-carboxamide]",–
0.0025,107* %,0.057,–,"CC[C@H](Nc1cc(C(F)F)c(-c2sc(C(=O)NC3CS(=O)(=O)C3)nc2C(=O)N2CCC[C@@H]2C)cn1)C(F)(F)F [Example 240, 5-[4-(Difluoromethyl)-6-[[(1S)-1-(trifluoromethyl)propyl]amino]-3-pyridyl]-N-(1,1-dioxothietan-3-yl)-4-[(2S)-2-methylpyrrolidine-1-carbonyl]thiazole-2-carboxamide]",–

# The next lines start with the compound.
Compound,Kd [1] [µM],"RORγt (FL) Reporter Assay B or C, % inhibition (value marked *) (full-length human RORγt)",IC50 (full-length human RORγt; [2]) [µM],"RORγt (FL) Reporter Assay B or C, % inhibition (value marked *****) (full-length human RORγt; marked *****: footnote not shown)",IC50 (full-length human RORγt; [3]) [µM]
"CC[C@H](Nc1cc(C(F)F)c(-c2sc(C(=O)N[C@H]3CCC[C@@H]3O)nc2C(=O)N2C3CCC2CC3)cn1)C(F)(F)F [Example 210, 4-((1s,4s)-7-Azabicyclo[2.2.1]heptane-7-carbonyl)-5-(4-(difluoromethyl)-6-(((1S)-1-(trifluoromethyl)propyl)amino)-3-pyridyl)-N-((1S,2S)-2-hydroxycyclopentyl)thiazole-2-carboxamide]",0.00069,105* %,0.021,–,–
"C[C@H](Nc1cc(C(F)F)c(-c2sc(C(=O)N[C@H]3C[C@H](O)C3)nc2C(=O)N2C3CCC2CC3)cn1)C(F)(F)F [Example 221, 4-((1s,4s)-7-Azabicyclo[2.2.1]heptane-7-carbonyl)-5-(4-(difluoromethyl)-6-(((1S)-2,2,2-trifluoro-1-methyl-ethyl)amino)-3-pyridyl)-N-((1r,3S)-3-hydroxycyclobutyl)thiazole-2-carboxamide]",0.027,103* %,0.078,–,–
"CC[C@H](Nc1cc(C(F)F)c(-c2sc(C(=O)N[C@H]3C[C@H](O)C3)nc2C(=O)N2C3CCC2CC3)cn1)C(F)(F)F [Example 222, 4-((1s,4s)-7-Azabicyclo[2.2.1]heptane-7-carbonyl)-5-(4-(difluoromethyl)-6-(((1S)-1-(trifluoromethyl)propyl)amino)-3-pyridyl)-N-((1r,3S)-3-hydroxycyclobutyl)thiazole-2-carboxamide]",0.01,113* %,0.012,–,–
"C[C@H](Nc1cc(C(F)F)c(-c2sc(C(=O)N[C@@H]3CCC[C@H]3O)nc2C(=O)N2C3CCC2CC3)cn1)C(F)(F)F [Example 224, 4-((1s,4s)-7-Azabicyclo[2.2.1]heptane-7-carbonyl)-5-(4-(difluoromethyl)-6-(((1S)-2,2,2-trifluoro-1-methyl-ethyl)amino)-3-pyridyl)-N-((1R,2R)-2-hydroxycyclopentyl)thiazole-2-carboxamide]",0.0027,112* %,–,–,0.026
"CC[C@H](Nc1cc(C(F)F)c(-c2sc(C(=O)N[C@@H]3CCC[C@H]3O)nc2C(=O)N2C3CCC2CC3)cn1)C(F)(F)F [Example 225, 4-((1s,4s)-7-Azabicyclo[2.2.1]heptane-7-carbonyl)-5-(4-(difluoromethyl)-6-(((1S)-1-(trifluoromethyl)propyl)amino)-3-pyridyl)-N-((1R,2R)-2-hydroxycyclopentyl)thiazole-2-carboxamide]",0.00095,110* %,0.0068,–,–
"C[C@H](CO)NC(=O)c1nc(C(=O)N2C3CCC2CC3)c(-c2cnc(N[C@@H](C)C(F)(F)F)cc2C(F)F)s1 [Example 226, 4-((1s,4s)-7-Azabicyclo[2.2.1]heptane-7-carbonyl)-5-(4-(difluoromethyl)-6-(((1S)-2,2,2-trifluoro-1-methyl-ethyl)amino)-3-pyridyl)-N-((1R)-2-hydroxy-1-methyl-ethyl)thiazole-2-carboxamide]",0.014,94* %,0.14,–,–
"CC[C@H](Nc1cc(C(F)F)c(-c2sc(C(=O)N[C@H](C)CO)nc2C(=O)N2C3CCC2CC3)cn1)C(F)(F)F [Example 227, 4-((1s,4s)-7-Azabicyclo[2.2.1]heptane-7-carbonyl)-5-(4-(difluoromethyl)-6-(((1S)-1-(trifluoromethyl)propyl)amino)-3-pyridyl)-N-((1R)-2-hydroxy-1-methyl-ethyl)thiazole-2-carboxamide]",0.0046,95* %,–,–,0.014
CC[C@@H](Nc1cc(C(F)F)c(-c2sc(C(=O)N[C@@H](C)C(C)(C)O)nc2C(=O)N2CCC[C@@H]2C)cn1)C(F)(F)F [Example 230],0.0024,99* %,0.015,–,–
"CC[C@H](Nc1cc(C(F)F)c(-c2sc(C(=O)N[C@H]3COC[C@@H]3O)nc2C(=O)N2CCC[C@@H]2C)cn1)C(F)(F)F [Example 239, 5-[4-(Difluoromethyl)-6-[[(1S)-1-(trifluoromethyl)propyl]amino]-3-pyridyl]-N-[(3S,4R)-4-hydroxytetrahydrofuran-3-yl]-4-[(2S)-2-methylpyrrolidine-1-carbonyl]thiazole-2-carboxamide]",0.0054,105* %,0.019,–,–
"CC[C@H](Nc1cc(C(F)F)c(-c2sc(C(=O)N[C@H](C)C(C)(C)O)nc2C(=O)N2CCCC[C@@H]2C)cn1)C(F)(F)F [Example 241, 5-[4-(Difluoromethyl)-6-[[(1S)-1-(trifluoromethyl)propyl]amino]-3-pyridyl]-N-[(1R)-2-hydroxy-1,2-dimethyl-propyl]-4-[(2S)-2-methylpiperidine-1-carbonyl]thiazole-2-carboxamide]",0.00059,103* %,0.024,–,–
